Measurements: patent EP4603105A1, “PHARMACEUTICAL COMPOSITION CONTAINING CYCLIC COMPOUND HAVING SELECTIVE KRAS INHIBITORY EFFECT AGAINST HRAS AND NRAS” (CHUGAI SEIYAKU KABUSHIKI KAISHA, priority 2022, dated 2024)

Assays:
[1] = molecular target: HRAS wild-type protein (Homo sapiens, UniProt P01112); test: Binding to HRAS by surface plasmon resonance (SPR), KD and KD ratio to KRAS; conditions: ratio of KD for HRAS wild-type protein to KD for KRAS
In short: (§1)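 SPR, 30°C: Avi-biotin RAS·GDP captured via Biotin CAPture (~100–300 RU); running buffer HBS pH 7.4, 1 mM DTT, 10 mM MgCl2, 0.01% Tween 20, 10 µM GDP, 4% DMSO. Single-cycle kinetics, 100 µL/min, 75 s injections; 1:1 model → KD.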

[2] = test system: human lung cancer strain NCI-H441; format: cell-based
In short: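 Proliferation was scored by […] measured after the reagent was added to cultures kept at 37°C in 5% carbon dioxide.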

[3] = molecular target: GDP-bound NRAS wild-type protein (Homo sapiens, UniProt P01111); test: Binding to NRAS by surface plasmon resonance (SPR), KD and KD ratio to KRAS; conditions: ratio of KD for GDP-bound NRAS wild-type protein to KD for KRAS
Chain of GDP-bound NRAS wild-type protein (P01111 whole entry): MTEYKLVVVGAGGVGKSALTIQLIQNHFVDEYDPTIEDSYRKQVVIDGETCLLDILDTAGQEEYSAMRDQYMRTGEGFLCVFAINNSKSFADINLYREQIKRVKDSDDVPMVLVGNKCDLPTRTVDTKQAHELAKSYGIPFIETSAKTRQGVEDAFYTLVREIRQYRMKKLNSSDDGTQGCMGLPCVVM
In short: as §1

Chain of HRAS wild-type protein (P01112 whole entry): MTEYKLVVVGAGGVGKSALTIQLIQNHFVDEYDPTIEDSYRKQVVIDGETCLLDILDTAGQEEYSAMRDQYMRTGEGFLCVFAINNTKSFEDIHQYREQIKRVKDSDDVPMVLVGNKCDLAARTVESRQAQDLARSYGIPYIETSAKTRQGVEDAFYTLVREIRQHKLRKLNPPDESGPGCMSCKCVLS

IC50 [2]	Compound	HRAS /KRAS [1]	NRAS /KRAS [3]
4.6 nM	CCO[C@@H]1C[C@H]2C(=O)NC3(CCC3)C(=O)N(C)[C@@H](C(CC)CC)C(=O)N(C)[C@H](C(=O)N3CCCC3)CC(=O)N(C)[C@H]3CCC/C=C/c4ccc(cc4)C[C@@H](C(=O)N(C)CC(=O)N[C@@H](CCc4cc(F)c(C(F)(F)F)c(F)c4)C(=O)N2C1)N1CC/C=C\C[C@@H](C1=O)N(C)C(=O)CN(C1CC1)C(=O)[C@H]([C@@H](C)CC)NC3=O [PP2957]	A (a compound having 10 or more and less than 20 is denoted as A)	AA (a compound having 20 or more is denoted as AA)
13.9 nM	CCC(CC)[C@H]1C(=O)N(C)[C@H](C(=O)N(C)C)CC(=O)N(C)[C@@H](COC)C(=O)N[C@@H]([C@@H](C)CC)C(=O)N(C)CC(=O)N(C)[C@H]2C/C=C\CCN(C2=O)[C@@H](Cc2ccc(C(F)(F)F)cc2)C(=O)N(C)CC(=O)N[C@@H](CCc2cc(F)c(C(F)(F)F)c(F)c2)C(=O)N2CC3(CC3)C[C@H]2C(=O)NC2(CC(C)(C)C2)C(=O)N1C [PP2961]	A (a compound having 10 or more and less than 20 is denoted as A)	AA (a compound having 20 or more is denoted as AA)
39.2 nM	CCC[C@H]1C(=O)N[C@@H]([C@@H](C)CC)C(=O)N(C)CC(=O)N(C)[C@H]2C/C=C\CCN(C2=O)[C@@H](Cc2ccc(C)cc2)C(=O)N(C)CC(=O)N[C@@H](CCc2ccc(Cl)c(Cl)c2)C(=O)N2CCCCC[C@H]2C(=O)NC2(CC(C)(C)C2)C(=O)N(C)[C@@H](C(CC)CC)C(=O)N(C)[C@H](C(=O)N(C)C)CC(=O)N1C [PP2962]	A (a compound having 10 or more and less than 20 is denoted as A)	AA (a compound having 20 or more is denoted as AA)
13.4 nM	CCC(CC)[C@H]1C(=O)N(C)[C@H](C(=O)N(C)C)CC(=O)N(C)[C@@H](COC)C(=O)N[C@@H]([C@@H](C)CC)C(=O)N(C)CC(=O)N(C)[C@H]2C/C=C\CCN(C2=O)[C@@H](Cc2ccc(C)cc2)C(=O)N(C)CC(=O)N[C@@H](CCc2cc(F)c(C(F)(F)F)c(F)c2)C(=O)N2CC3(CC3)C[C@H]2C(=O)NC2(CC(C)(C)C2)C(=O)N1C [PP2963]	A (a compound having 10 or more and less than 20 is denoted as A)	AA (a compound having 20 or more is denoted as AA)
50.1 nM	CCC[C@H]1C(=O)N[C@@H]([C@@H](C)CC)C(=O)N(C)CC(=O)N(C)[C@H]2C/C=C\CCN(C2=O)[C@@H](Cc2ccc(C(F)(F)F)cc2)C(=O)N(C)CC(=O)N[C@@H](CCc2ccc(C(F)(F)F)c(Cl)c2)C(=O)N2CCCCC[C@H]2C(=O)NC2(CC(C)(C)C2)C(=O)N(C)[C@@H](C(CC)CC)C(=O)N(C)[C@H](C(=O)N(C)C)CC(=O)N1C [PP2964]	A (a compound having 10 or more and less than 20 is denoted as A)	AA (a compound having 20 or more is denoted as AA)

The next lines start with the compound.

Compound	IC50 [2]	HRAS /KRAS [1]	NRAS /KRAS [3]
CCC[C@H]1C(=O)N[C@@H]([C@@H](C)CC)C(=O)N(C)CC(=O)N(C)[C@H]2C/C=C\CCN(C2=O)[C@@H](Cc2ccc(C(F)(F)F)cc2)C(=O)N(C)CC(=O)N[C@@H](CCc2ccc(C(F)(F)F)c(Cl)c2)C(=O)N2CCCC[C@H]2C(=O)NC2(CC(C)(C)C2)C(=O)N(C)[C@@H](C(CC)CC)C(=O)N(C)[C@H](C(=O)N(C)C)CC(=O)N1C [PP2928]	168 nM	A (a compound having 10 or more and less than 20 is denoted as A)	AA (a compound having 20 or more is denoted as AA)
CCC[C@H]1C(=O)N[C@@H]([C@@H](C)CC)C(=O)N(C)CC(=O)N(C)[C@H]2C/C=C\CCN(C2=O)[C@@H](Cc2ccc(C(F)(F)F)cc2)C(=O)N(C)CC(=O)N[C@@H](CCc2ccc(C(F)(F)F)c(Cl)c2)C(=O)N2CCOC[C@H]2C(=O)NC2(CC(C)(C)C2)C(=O)N(C)[C@@H](C(CC)CC)C(=O)N(C)[C@H](C(=O)N(C)C)CC(=O)N1C [PP2929]	90.3 nM	A (a compound having 10 or more and less than 20 is denoted as A)	AA (a compound having 20 or more is denoted as AA)
CCC[C@H]1C(=O)N[C@@H]([C@@H](C)CC)C(=O)N(C)CC(=O)N(C)[C@H]2C/C=C\CCN(C2=O)[C@@H](Cc2ccc(C(F)(F)F)cc2)C(=O)N(C)CC(=O)N[C@@H](CCc2ccc(C(F)(F)F)c(OC)c2)C(=O)N2CCCC[C@H]2C(=O)NC2(CC(C)(C)C2)C(=O)N(C)[C@@H](C(CC)CC)C(=O)N(C)[C@H](C(=O)N(C)C)CC(=O)N1C [PP2934]	108 nM	A (a compound having 10 or more and less than 20 is denoted as A)	AA (a compound having 20 or more is denoted as AA)
CCC[C@H]1C(=O)N[C@@H]([C@@H](C)CC)C(=O)N(C)CC(=O)N(C)[C@H]2C/C=C\CCN(C2=O)[C@@H](Cc2ccc(C(F)(F)F)cc2)C(=O)N(C)CC(=O)N[C@@H](CCc2ccc(C(F)(F)F)c(OC)c2)C(=O)N2CCOC[C@H]2C(=O)NC2(CC(C)(C)C2)C(=O)N(C)[C@@H](C(CC)CC)C(=O)N(C)[C@H](C(=O)N(C)C)CC(=O)N1C [PP2935]	50.5 nM	A (a compound having 10 or more and less than 20 is denoted as A)	A (a compound having 10 or more and less than 20 is denoted as A)
CCC[C@H]1C(=O)N[C@@H]([C@@H](C)CC)C(=O)N(C)CC(=O)N(C)[C@H]2C/C=C\CCN(C2=O)[C@@H](Cc2ccc(C(F)(F)F)cc2)C(=O)N(C)CC(=O)N[C@@H](CCc2ccc(C(F)(F)F)c(OC)c2)C(=O)N2CC[C@H]2C(=O)NC2(CC(C)(C)C2)C(=O)N(C)[C@@H](C(CC)CC)C(=O)N(C)[C@H](C(=O)N(C)C)CC(=O)N1C [PP2936]	187 nM	A (a compound having 10 or more and less than 20 is denoted as A)	AA (a compound having 20 or more is denoted as AA)
CCC(CC)[C@H]1C(=O)N(C)[C@H](C(=O)N(C)C)CC(=O)N(C)[C@@H](COC)C(=O)N[C@@H]([C@@H](C)CC)C(=O)N(C)CC(=O)N(C)[C@H]2C/C=C\CCN(C2=O)[C@@H](Cc2ccc(C(F)(F)F)cc2)C(=O)N(C)CC(=O)N[C@@H](CCc2ccc(Cl)c(Cl)c2)C(=O)N2CCOC[C@H]2C(=O)NC2(CC(C)(C)C2)C(=O)N1C [PP2941]	104 nM	A (a compound having 10 or more and less than 20 is denoted as A)	AA (a compound having 20 or more is denoted as AA)
CCC[C@H]1C(=O)N[C@@H]([C@@H](C)CC)C(=O)N(C)CC(=O)N(C)[C@H]2C/C=C\CCN(C2=O)[C@@H](Cc2ccc(C(F)(F)F)cc2)C(=O)N(C)CC(=O)N[C@@H](CCc2cc(Cl)c3sccc3c2)C(=O)N2C[C@H](OCC)C[C@H]2C(=O)NC2(CC(C)(C)C2)C(=O)N(C)[C@@H](C2CCCC2)C(=O)N(C)[C@H](C(=O)N(C)C)CC(=O)N1C [PP2946]	5.3 nM	A (a compound having 10 or more and less than 20 is denoted as A)	A (a compound having 10 or more and less than 20 is denoted as A)
CCC[C@H]1C(=O)N[C@@H]([C@@H](C)CC)C(=O)N(C)CC(=O)N(C)[C@H]2C/C=C\CCN(C2=O)[C@@H](Cc2ccc(C)cc2)C(=O)N(C)CC(=O)N[C@@H](CCc2ccc3sc(F)c(C)c3c2)C(=O)N2C[C@H](OCC)C[C@H]2C(=O)NC2(CC(C)(C)C2)C(=O)N(C)[C@@H](C2CCCC2)C(=O)N(C)[C@H](C(=O)N(C)C)CC(=O)N1C [PP2949]	3.5 nM	A (a compound having 10 or more and less than 20 is denoted as A)	A (a compound having 10 or more and less than 20 is denoted as A)
CCC[C@H]1C(=O)N[C@@H]([C@@H](C)CC)C(=O)N(C)CC(=O)N(C)[C@H]2C/C=C\CCN(C2=O)[C@@H](Cc2ccc(C(F)(F)F)cc2)C(=O)N(C)CC(=O)N[C@@H](CCc2cc(Cl)c3c(ccn3C)c2)C(=O)N2C[C@H](OCC)C[C@H]2C(=O)NC2(CC(C)(C)C2)C(=O)N(C)[C@@H](C2CCCC2)C(=O)N(C)[C@H](C(=O)N(C)C)CC(=O)N1C [PP2950]	24.2 nM	A (a compound having 10 or more and less than 20 is denoted as A)	A (a compound having 10 or more and less than 20 is denoted as A)
CCO[C@@H]1C[C@H]2C(=O)NC3(CC(C)(C)C3)C(=O)N(C)[C@@H](C(CC)CC)C(=O)N(C)[C@H](C(=O)N3CCCCC3)CC(=O)N(C)[C@H]3CCC/C=C/c4ccc(cc4)C[C@@H](C(=O)N(C)CC(=O)N[C@@H](CCc4cc(F)c(C(F)(F)F)c(F)c4)C(=O)N2C1)N1CC/C=C\C[C@@H](C1=O)N(C)C(=O)CN(C)C(=O)[C@H]([C@@H](C)CC)NC3=O [PP2952]	45 nM	A (a compound having 10 or more and less than 20 is denoted as A)	AA (a compound having 20 or more is denoted as AA)
CCO[C@@H]1C[C@H]2C(=O)NC3(CCC3)C(=O)N(C)[C@@H](C3CCCC3)C(=O)N(C)[C@H](C(=O)N3CCCCC3)CC(=O)N(C)[C@H]3CCC/C=C/c4ccc(cc4)C[C@@H](C(=O)N(C)CC(=O)N[C@@H](CCc4cc(F)c(C(F)(F)F)c(F)c4)C(=O)N2C1)N1CC/C=C\C[C@@H](C1=O)N(C)C(=O)CN(C1CC1)C(=O)[C@H]([C@@H](C)CC)NC3=O [PP2954]	16.5 nM	A (a compound having 10 or more and less than 20 is denoted as A)	A (a compound having 10 or more and less than 20 is denoted as A)
CCO[C@@H]1C[C@H]2C(=O)NC3(CCC3)C(=O)N(C)[C@@H](C(CC)CC)C(=O)N(C)[C@H](C(=O)N3CCCCC3)CC(=O)N(C)[C@H]3CCC/C=C/c4ccc(cc4)C[C@@H](C(=O)N(C)CC(=O)N[C@@H](CCc4cc(F)c(C(F)(F)F)c(F)c4)C(=O)N2C1)N1CC/C=C\C[C@@H](C1=O)N(C)C(=O)CN(C1CC1)C(=O)[C@H]([C@@H](C)CC)NC3=O [PP2956]	27.8 nM	A (a compound having 10 or more and less than 20 is denoted as A)	AA (a compound having 20 or more is denoted as AA)
